Calls of active or inactive are those of the source. The calls are words filed in the database; no cut-off is given here.
What was measured:
[1] = Reactivity with glutathione assessed as addition product with thiol group measured within 1 hr by mass spectrometry; type: physicochemical
[2] = Reactivity with dithiothretol assessed as addition product with thiol group measured within 1 hr by mass spectrometry; type: physicochemical
T47D = test: Antiproliferative activity against HER2-negative human T47D cells measured after 6 days of incubation by sulforhodamine B assay; type: functional, cell-based; conditions: 144 h
MCF7 = test: Antiproliferative activity against HER2-negative human MCF7 cells measured after 6 days of incubation by sulforhodamine B assay; type: functional, cell-based; conditions: MCF7, 144 h
[3] = target: T1, Histone acetyltransferase p300 (Homo sapiens, UniProt Q09472); test: Inhibition of p300 (unknown origin) using biotinylated histone H3 (1 to 21 residues) as substrate measured after 90 mins in presence of Acetyl CoA by AlphaLISA assay
T1 sequence (Q09472 whole entry, the tested form may be a part): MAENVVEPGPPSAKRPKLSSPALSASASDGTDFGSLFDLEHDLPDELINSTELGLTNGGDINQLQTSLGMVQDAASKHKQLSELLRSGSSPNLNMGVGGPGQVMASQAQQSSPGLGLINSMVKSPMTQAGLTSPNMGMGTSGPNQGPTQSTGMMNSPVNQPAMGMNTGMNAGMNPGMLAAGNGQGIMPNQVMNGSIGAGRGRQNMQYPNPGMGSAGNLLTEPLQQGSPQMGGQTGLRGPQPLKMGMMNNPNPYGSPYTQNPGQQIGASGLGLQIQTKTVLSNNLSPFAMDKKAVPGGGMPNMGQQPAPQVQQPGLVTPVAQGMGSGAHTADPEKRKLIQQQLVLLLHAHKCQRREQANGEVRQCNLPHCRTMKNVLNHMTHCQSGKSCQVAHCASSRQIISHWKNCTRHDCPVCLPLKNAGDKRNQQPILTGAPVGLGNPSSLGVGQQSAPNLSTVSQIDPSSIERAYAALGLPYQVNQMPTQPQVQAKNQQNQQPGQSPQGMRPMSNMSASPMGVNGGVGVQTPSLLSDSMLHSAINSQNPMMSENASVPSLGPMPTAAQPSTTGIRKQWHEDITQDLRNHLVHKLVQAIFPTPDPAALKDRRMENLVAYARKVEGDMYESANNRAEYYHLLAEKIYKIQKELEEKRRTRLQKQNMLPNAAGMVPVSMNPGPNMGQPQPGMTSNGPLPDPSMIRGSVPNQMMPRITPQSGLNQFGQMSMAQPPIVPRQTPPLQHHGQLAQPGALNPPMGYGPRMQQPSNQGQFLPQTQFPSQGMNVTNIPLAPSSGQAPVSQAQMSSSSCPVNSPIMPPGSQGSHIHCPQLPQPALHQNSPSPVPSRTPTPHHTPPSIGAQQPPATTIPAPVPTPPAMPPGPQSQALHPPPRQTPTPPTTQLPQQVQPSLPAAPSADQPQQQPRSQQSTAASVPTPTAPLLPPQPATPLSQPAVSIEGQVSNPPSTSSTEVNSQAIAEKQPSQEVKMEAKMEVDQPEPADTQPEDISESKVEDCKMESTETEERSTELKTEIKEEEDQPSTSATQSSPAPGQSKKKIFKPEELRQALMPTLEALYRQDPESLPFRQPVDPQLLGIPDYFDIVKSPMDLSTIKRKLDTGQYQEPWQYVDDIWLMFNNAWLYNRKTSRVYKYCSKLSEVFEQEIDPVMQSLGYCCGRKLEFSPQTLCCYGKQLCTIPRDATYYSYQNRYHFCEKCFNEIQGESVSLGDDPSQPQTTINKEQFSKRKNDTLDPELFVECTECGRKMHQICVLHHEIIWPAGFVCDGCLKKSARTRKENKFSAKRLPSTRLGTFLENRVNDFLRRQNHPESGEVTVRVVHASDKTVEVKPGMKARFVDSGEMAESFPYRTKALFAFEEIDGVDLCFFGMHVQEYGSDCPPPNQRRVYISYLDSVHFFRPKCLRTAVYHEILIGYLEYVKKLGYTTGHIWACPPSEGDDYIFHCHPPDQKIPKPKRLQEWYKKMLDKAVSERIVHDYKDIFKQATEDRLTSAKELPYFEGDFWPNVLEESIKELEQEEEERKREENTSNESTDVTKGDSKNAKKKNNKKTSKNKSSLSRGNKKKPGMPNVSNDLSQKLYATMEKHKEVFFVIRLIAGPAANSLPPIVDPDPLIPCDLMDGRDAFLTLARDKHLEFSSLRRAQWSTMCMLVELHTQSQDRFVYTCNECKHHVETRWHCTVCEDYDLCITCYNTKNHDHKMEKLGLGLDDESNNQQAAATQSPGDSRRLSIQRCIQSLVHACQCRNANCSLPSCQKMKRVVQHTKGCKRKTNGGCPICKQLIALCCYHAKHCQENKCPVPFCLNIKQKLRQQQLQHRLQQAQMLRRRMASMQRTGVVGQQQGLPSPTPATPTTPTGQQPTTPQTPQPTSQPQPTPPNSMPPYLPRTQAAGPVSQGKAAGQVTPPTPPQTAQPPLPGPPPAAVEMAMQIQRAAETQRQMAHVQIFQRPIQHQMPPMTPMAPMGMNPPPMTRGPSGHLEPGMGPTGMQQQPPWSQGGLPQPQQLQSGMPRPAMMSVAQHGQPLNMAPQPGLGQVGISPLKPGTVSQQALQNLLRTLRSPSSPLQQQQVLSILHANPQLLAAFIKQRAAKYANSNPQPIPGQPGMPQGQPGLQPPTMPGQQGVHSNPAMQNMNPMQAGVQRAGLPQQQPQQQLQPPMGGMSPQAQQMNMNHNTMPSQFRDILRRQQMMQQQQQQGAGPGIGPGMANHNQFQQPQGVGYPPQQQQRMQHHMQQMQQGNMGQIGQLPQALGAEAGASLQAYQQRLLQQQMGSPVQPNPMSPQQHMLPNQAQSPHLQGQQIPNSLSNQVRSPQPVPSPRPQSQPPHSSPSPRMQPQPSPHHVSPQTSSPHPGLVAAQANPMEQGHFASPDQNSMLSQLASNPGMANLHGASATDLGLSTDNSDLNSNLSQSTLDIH

[4] = Solubility of compound in water; type: physicochemical; conditions: buffer
[5] = target: T1, Histone acetyltransferase p300; test: Inhibition of p300 in human U2932 cells assessed as reduction in H3K27 acetylation at 10 uM measured after 4 days in presence of EZH2 inhibitor EPZ6438 by Western blot analysis; type: cell-based
[6] = Solubility of compound in ethyl acetate; type: physicochemical
[7] = target: T2, Protein deacetylase HDAC6 (Homo sapiens, UniProt Q9UBN7); test: Inhibition of recombinant HDAC6 (unknown origin) measured after 30 mins by fluorescence assay
T2 sequence (Q9UBN7 whole entry): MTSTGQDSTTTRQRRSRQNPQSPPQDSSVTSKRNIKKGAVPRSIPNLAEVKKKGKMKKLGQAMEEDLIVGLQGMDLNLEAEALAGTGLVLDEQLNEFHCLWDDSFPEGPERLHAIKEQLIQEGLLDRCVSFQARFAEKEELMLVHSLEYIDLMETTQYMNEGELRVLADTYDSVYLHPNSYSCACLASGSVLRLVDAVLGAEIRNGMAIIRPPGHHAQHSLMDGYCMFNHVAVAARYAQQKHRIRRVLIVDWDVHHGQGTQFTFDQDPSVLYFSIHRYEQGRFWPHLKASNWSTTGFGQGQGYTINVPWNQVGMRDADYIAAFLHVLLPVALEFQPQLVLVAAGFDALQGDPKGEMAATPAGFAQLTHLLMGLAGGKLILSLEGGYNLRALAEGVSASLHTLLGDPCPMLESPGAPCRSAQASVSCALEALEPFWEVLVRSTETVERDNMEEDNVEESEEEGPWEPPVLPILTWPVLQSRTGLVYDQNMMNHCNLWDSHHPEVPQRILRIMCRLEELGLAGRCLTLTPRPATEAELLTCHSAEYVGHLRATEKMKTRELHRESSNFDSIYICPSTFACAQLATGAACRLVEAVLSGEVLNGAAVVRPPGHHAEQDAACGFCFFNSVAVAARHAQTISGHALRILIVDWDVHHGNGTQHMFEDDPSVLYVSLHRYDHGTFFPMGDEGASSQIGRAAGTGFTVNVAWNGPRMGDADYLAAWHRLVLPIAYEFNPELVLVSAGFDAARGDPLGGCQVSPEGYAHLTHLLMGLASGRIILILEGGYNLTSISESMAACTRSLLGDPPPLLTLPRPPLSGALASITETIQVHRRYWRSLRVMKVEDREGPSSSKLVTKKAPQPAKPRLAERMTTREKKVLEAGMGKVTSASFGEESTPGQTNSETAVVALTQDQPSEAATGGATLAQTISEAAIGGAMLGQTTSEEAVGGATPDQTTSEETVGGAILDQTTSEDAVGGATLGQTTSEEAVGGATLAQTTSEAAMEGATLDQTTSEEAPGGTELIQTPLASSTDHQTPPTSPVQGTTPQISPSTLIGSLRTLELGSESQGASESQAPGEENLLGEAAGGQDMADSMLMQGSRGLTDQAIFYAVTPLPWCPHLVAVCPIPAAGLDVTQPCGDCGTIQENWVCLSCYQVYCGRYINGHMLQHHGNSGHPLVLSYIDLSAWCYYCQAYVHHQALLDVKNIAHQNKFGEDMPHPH

[8] = Reactivity with glutathione assessed as addition product with thiol group measured at 50 degC by mass spectrometry; type: physicochemical
Histone deacetylase 2 = Histone deacetylase 2 (Homo sapiens, UniProt Q92769); test: Inhibition of recombinant HDAC2 (unknown origin) measured after 30 mins by fluorescence assay
Sequence of Histone deacetylase 2 (Q92769 whole entry): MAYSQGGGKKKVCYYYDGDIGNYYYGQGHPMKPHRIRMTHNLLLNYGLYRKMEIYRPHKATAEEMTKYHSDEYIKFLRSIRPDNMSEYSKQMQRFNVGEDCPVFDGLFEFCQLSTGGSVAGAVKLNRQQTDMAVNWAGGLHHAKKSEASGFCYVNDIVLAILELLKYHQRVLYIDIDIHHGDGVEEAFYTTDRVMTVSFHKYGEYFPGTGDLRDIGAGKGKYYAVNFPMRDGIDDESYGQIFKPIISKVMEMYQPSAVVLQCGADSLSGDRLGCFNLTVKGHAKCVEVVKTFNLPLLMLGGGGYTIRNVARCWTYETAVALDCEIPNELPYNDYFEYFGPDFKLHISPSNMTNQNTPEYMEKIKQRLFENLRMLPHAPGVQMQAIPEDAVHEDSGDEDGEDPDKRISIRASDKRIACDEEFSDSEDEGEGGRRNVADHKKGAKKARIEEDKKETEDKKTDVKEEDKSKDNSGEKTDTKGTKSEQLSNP

Histone deacetylase 1 = Histone deacetylase 1 (Homo sapiens, UniProt Q13547); test: Inhibition of recombinant HDAC1 (unknown origin) measured after 30 mins by fluorescence assay
Sequence of Histone deacetylase 1 (Q13547 whole entry): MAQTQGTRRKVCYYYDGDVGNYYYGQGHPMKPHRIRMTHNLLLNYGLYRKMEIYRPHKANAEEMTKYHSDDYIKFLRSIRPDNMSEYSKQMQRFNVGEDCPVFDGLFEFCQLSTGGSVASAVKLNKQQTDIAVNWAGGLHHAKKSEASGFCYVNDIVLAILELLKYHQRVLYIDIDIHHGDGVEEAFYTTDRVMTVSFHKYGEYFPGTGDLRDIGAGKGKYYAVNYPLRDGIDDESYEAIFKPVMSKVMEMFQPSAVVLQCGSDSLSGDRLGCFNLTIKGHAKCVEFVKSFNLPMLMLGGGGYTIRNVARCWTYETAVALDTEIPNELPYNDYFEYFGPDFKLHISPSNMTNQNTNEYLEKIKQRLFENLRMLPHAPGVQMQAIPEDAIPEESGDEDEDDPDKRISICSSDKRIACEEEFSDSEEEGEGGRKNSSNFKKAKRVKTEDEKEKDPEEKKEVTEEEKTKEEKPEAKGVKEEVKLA

[9] = Reactivity with dithiothretol assessed as addition product with thiol group measured at 50 degC by mass spectrometry; type: physicochemical
Histone deacetylase 8 = target: T3, Histone deacetylase 8 (Homo sapiens, UniProt Q9BY41); test: Inhibition of recombinant HDAC8 (unknown origin) measured after 30 mins by fluorescence assay
T3 sequence (Q9BY41 whole entry): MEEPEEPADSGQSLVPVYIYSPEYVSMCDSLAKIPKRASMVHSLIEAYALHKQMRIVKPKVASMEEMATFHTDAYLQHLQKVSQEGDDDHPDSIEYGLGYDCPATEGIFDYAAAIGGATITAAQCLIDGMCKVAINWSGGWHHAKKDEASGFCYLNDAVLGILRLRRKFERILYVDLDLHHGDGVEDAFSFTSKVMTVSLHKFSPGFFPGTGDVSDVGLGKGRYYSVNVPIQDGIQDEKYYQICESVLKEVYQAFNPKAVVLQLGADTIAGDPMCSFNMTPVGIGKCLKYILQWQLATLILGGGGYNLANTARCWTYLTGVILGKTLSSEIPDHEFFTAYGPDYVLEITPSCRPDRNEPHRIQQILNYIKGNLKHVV

[10] = Reactivity with glutathione assessed as addition product with thiol group measured after 6 hrs by mass spectrometry; type: physicochemical
[11] = Reactivity with dithiothretol assessed as addition product with thiol group measured after 6 hrs by mass spectrometry; type: physicochemical
Histone deacetylase 3 = Histone deacetylase 3 (Homo sapiens, UniProt O15379); test: Inhibition of recombinant HDAC3 (unknown origin) measured after 30 mins by fluorescence assay
Sequence of Histone deacetylase 3 (O15379 whole entry): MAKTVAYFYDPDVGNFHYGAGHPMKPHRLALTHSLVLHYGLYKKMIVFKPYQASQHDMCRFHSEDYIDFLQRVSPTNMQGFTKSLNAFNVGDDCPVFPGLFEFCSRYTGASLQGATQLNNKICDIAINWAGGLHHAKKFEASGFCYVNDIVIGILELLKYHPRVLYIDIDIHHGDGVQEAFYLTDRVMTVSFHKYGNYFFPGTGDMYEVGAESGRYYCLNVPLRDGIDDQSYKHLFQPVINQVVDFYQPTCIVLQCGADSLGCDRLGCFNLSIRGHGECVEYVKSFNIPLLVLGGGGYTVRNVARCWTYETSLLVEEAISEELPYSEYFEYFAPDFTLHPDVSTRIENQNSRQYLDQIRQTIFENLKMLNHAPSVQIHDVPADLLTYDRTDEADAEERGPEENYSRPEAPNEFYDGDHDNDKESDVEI

Question: For `CC1=NN(c2ccc(C(=O)O)cc2)C(=O)/C1=C\c1ccc(-c2cc(C)c(C)cc2[N+](=O)[O-])o1`, which Activity [1] is on record?
Answer: Active

Question: And the Activity [2]?
Answer: Active

Question: And the IC50 (T47D)?
Answer: 7.8 µM

Question: And the IC50 (MCF7)?
Answer: 26.1 µM

Question: For `CC1=NN(c2ccc(S(C)(=O)=O)cc2)C(=O)/C1=C\c1ccc(-c2cc(C)c(C)cc2[N+](=O)[O-])o1`, which IC50 [3] is on record?
Answer: 4.06 µM

Question: With `CC1=NN(c2ccc(C(=O)O)cc2)C(=O)/C1=C\c1ccc(-c2ccccc2[N+](=O)[O-])o1` as the molecule, how does the IC50 [3] read?
Answer: 0.56 µM

Question: With `Cc1cc(-c2ccc(/C=C3/NC(=O)N(c4ccc(C(=O)O)cc4)C3=O)o2)c([N+](=O)[O-])cc1C` as the molecule, how does the IC50 [3] read?
Answer: > 10 µM

Question: With `Cc1cc(Cc2ccc3c(cnn3-c3ccc(C(=O)O)cc3)c2)c([N+](=O)[O-])cc1C` as the molecule, how does the IC50 [3] read?
Answer: > 10 µM

Question: For `CC1=NN(c2ccc(C(=O)O)cc2)C(=O)/C1=C\c1cnc(-c2cc(C)c(C)cc2[N+](=O)[O-])s1`, which IC50 [3] is on record?
Answer: 0.86 µM

Question: Which IC50 [3] does the source give for `Cc1cc(C(=O)c2ccc3c(ccn3-c3ccc(C(=O)O)cc3)c2)c([N+](=O)[O-])cc1C` here?
Answer: > 10 µM

Question: With `CC1=NN(c2ccc(C(=O)O)cc2)C(=O)C1CCC(=O)Nc1cc(C)c(C)cc1[N+](=O)[O-]` (stereo not given) as the molecule, how does the IC50 [3] read?
Answer: > 10 µM

Question: With `CC1=NN(c2ccc(C(=O)O)cc2)C(=O)/C1=C\c1ccc(-c2cc(C)c(C)cc2[N+](=O)[O-])[nH]1` as the molecule, how does the IC50 [3] read?
Answer: 1.95 µM

Question: For `CC1=NN(c2ccc(C#N)cc2)C(=O)/C1=C\c1ccc(-c2cc(C)c(C)cc2[N+](=O)[O-])o1`, which IC50 [3] is on record?
Answer: 1.53 µM

Question: For `CC1=NN(c2ccc(P(=O)(O)O)cc2)C(=O)/C1=C\c1ccc(-c2cc(C)c(C)cc2[N+](=O)[O-])o1`, which IC50 [3] is on record?
Answer: 0.47 µM

Question: For `Cc1cc(-c2ccc(/C=C(\C#N)C(=O)Nc3ccc(C(=O)O)cc3)o2)c([N+](=O)[O-])cc1C`, which IC50 [3] is on record?
Answer: 7.13 µM

Question: Which solubility [4] does the source give for `CC1=NN(c2cc(F)c(O)c(F)c2)C(=O)/C1=C\c1ccc(-c2cc(C)c(C)cc2[N+](=O)[O-])o1` here?
Answer: Soluble

Question: And the inhibition [5]?
Answer: Active

Question: What about the solubility [6] of the same molecule?
Answer: Soluble

Question: And the IC50 [3]?
Answer: 4.8 µM

Question: What does the source list for `CC1=NN(c2ccc(C(=O)O)cc2)C(=O)/C1=C\c1ccc(-c2cc(C)c(C)cc2C(F)(F)F)o1`?
Answer: inhibition [5]: Active; IC50 (T47D): 6.19 µM; IC50 (MCF7): 10.9 µM; IC50 [3]: 0.29 µM

Question: Which IC50 [3] does the source give for `CC1=NN(c2cc(F)c(O)c(F)c2)C(=O)/C1=C\c1ccc(-c2ccccc2OC(F)(F)F)o1` here?
Answer: > 10 µM

Question: With `CCC1=NN(c2ccc(C(=O)O)cc2)C(=O)/C1=C\c1ccc(-c2cc(C)c(C)cc2[N+](=O)[O-])o1` as the molecule, how does the IC50 [3] read?
Answer: 0.19 µM

Question: For `CC1=NN(c2ccc(C(=O)O)cc2)C(=O)/C1=C\c1ccc(-c2ccccc2P(C)(C)=O)o1`, which IC50 [3] is on record?
Answer: > 10 µM

Question: For `CC1=NN(c2ccc(C(=O)O)cc2)C(=O)/C1=C\c1ccc(-c2ccccc2C(F)F)o1`, which IC50 [3] is on record?
Answer: 1.17 µM

Question: For `CC1=NN(c2ccc(C(=O)O)cc2)C(=O)/C1=C\c1ccc(-c2cccc3c2C(=O)CC3)o1`, which inhibition [5] is on record?
Answer: Active

Question: What about the IC50 (T47D) of the same molecule?
Answer: 10 µM

Question: And the IC50 (MCF7)?
Answer: 26.8 µM

Question: And the IC50 [3]?
Answer: 0.58 µM

Question: Which results are given for `CC1=NN(c2cc(F)c(O)c(F)c2)C(=O)/C1=C\c1ccc(-c2cc(C)c(C)cc2C(F)(F)F)o1`?
Answer: solubility [4]: Soluble; inhibition [5]: Active; solubility [6]: Soluble; IC50 [3]: 7.31 µM

Question: For `CC1=NN(c2ccc(-c3nn[nH]n3)cc2)C(=O)/C1=C\c1ccc(-c2cc(C)c(C)cc2[N+](=O)[O-])o1`, which IC50 [3] is on record?
Answer: 0.67 µM

Question: For `Cc1cc(-c2ccc(/C=C3\C(=O)N(c4ccc(C(=O)O)cc4)N=C3C3CC3)o2)c([N+](=O)[O-])cc1C`, which IC50 [3] is on record?
Answer: 0.2 µM

Question: For `CC1=NN(c2cc(F)c(O)c(F)c2)C(=O)/C1=C\c1ccc(-c2cccc3c2C(=O)CC3)o1`, which solubility [4] is on record?
Answer: Soluble

Question: What about the inhibition [5] of the same molecule?
Answer: Active

Question: And the solubility [6]?
Answer: Soluble

Question: And the IC50 [3]?
Answer: 3.73 µM

Question: With `CC1=NN(c2ccc(C(=O)O)cc2)C(=O)C1CC(=O)Nc1cc(C)c(C)cc1[N+](=O)[O-]` (stereo not given) as the molecule, how does the IC50 [3] read?
Answer: 9.61 µM

Question: For `Cc1cc(-c2ccc(/C=C3\C(=O)N(c4ccc(C(=O)O)cc4)N=C3C3CC3)s2)c(C(F)(F)F)cc1C`, which IC50 [7] is on record?
Answer: 25.1 µM

Question: What about the inhibition [5] of the same molecule?
Answer: Active

Question: What about the Activity [8] of the same molecule?
Answer: Active

Question: And the IC50 (Histone deacetylase 2)?
Answer: > 100 µM

Question: And the IC50 (T47D)?
Answer: 5.08 µM

Question: And the IC50 (Histone deacetylase 1)?
Answer: > 100 µM

Question: And the Activity [9]?
Answer: Active

Question: What about the IC50 (Histone deacetylase 8) of the same molecule?
Answer: > 100 µM

Question: And the Activity [10]?
Answer: Not Active

Question: What about the Activity [11] of the same molecule?
Answer: Not Active

Question: And the IC50 (MCF7)?
Answer: 22.5 µM

Question: And the IC50 [3]?
Answer: 0.16 µM

Question: And the IC50 (Histone deacetylase 3)?
Answer: > 100 µM

Question: Which inhibition [5] does the source give for `CC1=NN(c2ccc(C(=O)O)cc2)C(=O)/C1=C\c1ccc(-c2ccccc2OC(F)(F)F)o1` here?
Answer: Active

Question: And the IC50 (T47D)?
Answer: 7.67 µM

Question: And the IC50 (MCF7)?
Answer: 23.9 µM

Question: What about the IC50 [3] of the same molecule?
Answer: 1.13 µM

Question: What does the source list for `CC1=NN(c2cc(F)c(O)c(F)c2)C(=O)/C1=C\c1ccc(-c2ccccc2C(F)F)o1`?
Answer: solubility [4]: Soluble; inhibition [5]: Active; solubility [6]: Soluble; IC50 [3]: 6.05 µM

Question: With `Cc1cc(C(=O)c2ccc3c(cnn3-c3ccc(C(=O)O)cc3)c2)c([N+](=O)[O-])cc1C` as the molecule, how does the IC50 [3] read?
Answer: > 10 µM

Question: For `CC1=NN(c2ccc(C(=O)O)cc2)C(=O)/C1=C\c1ccc(-c2cc(C)c(C)cc2[N+](=O)[O-])s1`, which inhibition [5] is on record?
Answer: Active

Question: What about the IC50 (T47D) of the same molecule?
Answer: 8.92 µM

Question: And the IC50 (MCF7)?
Answer: 27.3 µM

Question: What about the IC50 [3] of the same molecule?
Answer: 0.23 µM

Question: Which IC50 [3] does the source give for `CC1=NN(c2ccc(C(=O)O)cc2)C(=O)/C1=C(/C)c1ccc(-c2cc(C)c(C)cc2[N+](=O)[O-])o1` here?
Answer: 2.07 µM

Question: For `Cc1cc(-c2ccc(/C=C3/SC(=O)N(c4ccc(C(=O)O)cc4)C3=O)o2)c([N+](=O)[O-])cc1C`, which IC50 [3] is on record?
Answer: > 10 µM

Source: ChEMBL document CHEMBL4359851, “Design, synthesis, and biological evaluation of a new class of histone acetyltransferase p300 inhibitors” (Eur J Med Chem, 2019)
